Laboratory results: ChEMBL document CHEMBL1201862, “PubChem BioAssay data set” (2004)
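Method: 48-hour compound exposure of cells in 96-well plates, five concentrations, linear interpolation of endpoints. GI50 is the concentration that inhibits growth by half.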 Activity calls are given as the source filed them. No stated cut-off is given here; in the data, active = GI50 up to about 1.1 µM and inactive = higher.

How the values were obtained:
Experiment in all cases: NCI-60 cell line screen, 48 h
SK-MEL-2 = tested on: SK-MEL-2
MCF7 = tested on: MCF7
MDA-MB-435 = tested on: MDA-MB-435
SK-MEL-5 = tested on: SK-MEL-5
CCRF-CEM = tested on: CCRF-CEM
CAKI-1 = tested on: CAKI-1
HL-60 = tested on: HL-60
HOP-92 = tested on: HOP-92
IGROV-1 = tested on: IGROV-1
HOP-62 = tested on: HOP-62
LOX IMVI = tested on: LOX IMVI
OVCAR-4 = tested on: OVCAR-4
DU-145 = tested on: DU-145
SF-268 = tested on: SF-268
BT-549 = tested on: BT-549
NCI-H23 = tested on: NCI-H23
T47D = tested on: T47D
HCC 2998 = tested on: HCC 2998
RXF 393 = tested on: RXF 393
SR = tested on: SR

Measured: GI50

N#CC12C(=O)N3C(=NC(c4ccccc4)NC3c3ccccc3)C1(C#N)C(c1ccccc1)NC1=C2CCCC1 (stereo not drawn)
inactive: SK-MEL-2 > 100 µM | MCF7 > 100 µM | MDA-MB-435 > 100 µM | SK-MEL-5 > 100 µM | CCRF-CEM 30.3 µM | CAKI-1 > 100 µM | HL-60 > 100 µM | HOP-92 > 100 µM | IGROV-1 > 100 µM | HOP-62 > 100 µM | LOX IMVI > 100 µM | OVCAR-4 > 100 µM | DU-145 > 100 µM | SF-268 > 100 µM | BT-549 > 100 µM | NCI-H23 > 100 µM | T47D > 100 µM | HCC 2998 > 100 µM | RXF 393 > 100 µM

COc1cc2c(cc1OC)C1C(O)C(OC)C=C3CC[N+](C)(C2)C31 (stereo not drawn)
inactive: SK-MEL-2 > 100 µM | MCF7 > 100 µM | MDA-MB-435 > 100 µM | SK-MEL-5 > 100 µM | CCRF-CEM > 100 µM | CAKI-1 > 100 µM | HL-60 > 100 µM | HOP-92 > 100 µM | IGROV-1 > 100 µM | HOP-62 > 100 µM | OVCAR-4 > 100 µM | DU-145 > 100 µM | SF-268 > 100 µM | BT-549 > 100 µM | NCI-H23 > 100 µM | T47D > 100 µM | HCC 2998 > 100 µM | RXF 393 > 100 µM

O=C(O)C(Cc1c[nH]cn1)N1C(=O)c2ccccc2C1=O (stereo not drawn)
inactive: SK-MEL-2 6.19 µM | MCF7 > 100 µM | MDA-MB-435 > 100 µM | SK-MEL-5 > 100 µM | CAKI-1 > 100 µM | HOP-92 > 100 µM | SR > 100 µM | IGROV-1 > 100 µM | HOP-62 12.9 µM | LOX IMVI > 100 µM | OVCAR-4 > 100 µM | DU-145 > 100 µM | SF-268 > 100 µM | BT-549 > 100 µM | NCI-H23 > 100 µM | T47D > 100 µM | RXF 393 > 100 µM

CN(/N=C/c1ccccn1)C1=NCCCN1
inactive: SK-MEL-2 > 100 µM | MCF7 > 100 µM | MDA-MB-435 > 100 µM | SK-MEL-5 > 100 µM | CCRF-CEM > 100 µM | CAKI-1 > 100 µM | HL-60 > 100 µM | HOP-92 > 100 µM | SR > 100 µM | IGROV-1 > 100 µM | HOP-62 > 100 µM | LOX IMVI > 100 µM | OVCAR-4 > 100 µM | SF-268 > 100 µM | BT-549 > 100 µM | NCI-H23 > 100 µM | T47D > 100 µM | HCC 2998 > 100 µM | RXF 393 > 100 µM

CC(=O)N/N=C1\NC(=O)C[C@H]2[C@@H]3CC=C4C[C@@H](OC(C)=O)CC[C@]4(C)[C@H]3CC[C@]12C
inactive: SK-MEL-2 47.5 µM | MCF7 46.9 µM | MDA-MB-435 4.06 µM | SK-MEL-5 50.8 µM | CCRF-CEM > 100 µM | CAKI-1 > 100 µM | HL-60 > 100 µM | HOP-92 15.9 µM | IGROV-1 31 µM | HOP-62 13.6 µM | LOX IMVI 35.4 µM | OVCAR-4 11.2 µM | DU-145 74 µM | SF-268 27.7 µM | BT-549 12.4 µM | NCI-H23 49.9 µM | T47D > 100 µM

CN(C)S(=O)(=O)/N=C/c1cccc(/C=N/S(=O)(=O)N(C)C)c1
inactive: MCF7 46.7 µM | MDA-MB-435 44.8 µM | SK-MEL-5 55.1 µM | CCRF-CEM 74.8 µM | CAKI-1 > 100 µM | HL-60 > 100 µM | HOP-92 32.1 µM | HOP-62 > 100 µM | LOX IMVI > 100 µM | OVCAR-4 > 100 µM | DU-145 > 100 µM | SF-268 61.5 µM | BT-549 38.1 µM | NCI-H23 > 100 µM | T47D > 100 µM | HCC 2998 > 100 µM

COCO[C@@H]1C[C@H]2C(=O)Nc3ccccc3C(=O)N2C1
inactive: SK-MEL-2 46.6 µM | MCF7 54.1 µM | MDA-MB-435 53.7 µM | SK-MEL-5 24.1 µM | CAKI-1 36 µM | IGROV-1 33 µM | HOP-62 39.8 µM | LOX IMVI 29.2 µM | OVCAR-4 > 100 µM | DU-145 48.8 µM | SF-268 36.4 µM | BT-549 35.3 µM | NCI-H23 51.4 µM | T47D 69.2 µM | RXF 393 20.6 µM

N#Cc1cc(-c2nc3ccc(F)cc3s2)ccc1N
inactive: MCF7 18 µM | MDA-MB-435 17.7 µM | SK-MEL-5 > 100 µM | CCRF-CEM > 100 µM | CAKI-1 > 100 µM | HL-60 > 100 µM | HOP-92 > 100 µM | IGROV-1 3.27 µM | HOP-62 72.1 µM | LOX IMVI 74.8 µM | OVCAR-4 > 100 µM | DU-145 > 100 µM | SF-268 > 100 µM | BT-549 > 100 µM | NCI-H23 > 100 µM | T47D > 100 µM | RXF 393 > 100 µM

CCOC(=O)c1cc(=O)c2cccc3c2n1CCS3
inactive: SK-MEL-2 > 100 µM | MCF7 > 100 µM | MDA-MB-435 > 100 µM | SK-MEL-5 > 100 µM | CCRF-CEM > 100 µM | CAKI-1 > 100 µM | HL-60 > 100 µM | HOP-92 > 100 µM | IGROV-1 > 100 µM | HOP-62 > 100 µM | LOX IMVI > 100 µM | DU-145 > 100 µM | SF-268 > 100 µM | BT-549 42.9 µM | NCI-H23 > 100 µM | T47D > 100 µM

O=C(NNC(=O)c1ccccc1O)c1cccs1
inactive: SK-MEL-2 > 100 µM | MCF7 52.2 µM | MDA-MB-435 > 100 µM | SK-MEL-5 > 100 µM | CCRF-CEM > 100 µM | CAKI-1 79.4 µM | HL-60 50 µM | SR 71 µM | IGROV-1 30.7 µM | HOP-62 42.6 µM | LOX IMVI 66.4 µM | OVCAR-4 > 100 µM | DU-145 > 100 µM | SF-268 19 µM | BT-549 > 100 µM | T47D > 100 µM | RXF 393 > 100 µM

Cc1ccc(S(=O)(=O)N2CCCSCCSCCCN(S(=O)(=O)c3ccc(C)cc3)CC2)cc1
inactive: SK-MEL-2 > 100 µM | MCF7 > 100 µM | MDA-MB-435 > 100 µM | SK-MEL-5 > 100 µM | IGROV-1 > 100 µM | HOP-62 > 100 µM | OVCAR-4 > 100 µM | DU-145 > 100 µM | SF-268 > 100 µM | BT-549 > 100 µM | NCI-H23 > 100 µM | T47D 57.8 µM | HCC 2998 > 100 µM | RXF 393 > 100 µM

NC(=O)NC1C(c2ccccc2)=C1c1ccccc1
inactive: MCF7 14.7 µM | MDA-MB-435 18.7 µM | SK-MEL-5 11.1 µM | CCRF-CEM 5.47 µM | CAKI-1 18.9 µM | HL-60 31.6 µM | HOP-92 11.9 µM | IGROV-1 12.7 µM | HOP-62 36.4 µM | LOX IMVI 13.5 µM | OVCAR-4 15.3 µM | DU-145 41.3 µM | SF-268 13.4 µM | BT-549 12.6 µM | NCI-H23 21.2 µM | T47D 69.5 µM | HCC 2998 16.5 µM | RXF 393 3.41 µM
